According to ChEMBL document CHEMBL2163284, “Targeting the S1 and S3 subsite of trypsin with unnatural cationic amino acids generates antimicrobial peptides with potential for oral administration” (J Med Chem, 2012):
pKd: −log10 of the molar value. Values after ≈ are worked out from the molar mass of the structure shown. Non-standard residues stand in square brackets, D forms with d. Residues, ends and D or L forms follow the SMILES beside them. *: point of attachment. Phe(4-guanidino) = N=C(N)Nc1ccc(C[C@H](N)C(=O)O)cc1; Bip = N[C@@H](Cc1ccc(-c2ccccc2)cc1)C(=O)O; Phe(4-NH2) = Nc1ccc(C[C@H](N)C(=O)O)cc1; hArg = N=C(N)NCCCC[C@H](N)C(=O)O; Agp = N=C(N)NC[C@H](N)C(=O)O; Orn = NCCC[C@H](N)C(=O)O; NHBn = c1ccc(CN*)cc1

Columns and labels:
[1] = Chemical stability assessed as half life at 1 mg/ml in presence of trypsin incubated for 24 hrs by RP-HPLC; assay type: physicochemical; conditions: for half-life at 1 mg/ml: trypsin; for t1/2: isolated protein, 24 h
Staphylococcus aureus [2] = test: Antimicrobial activity against methicillin-resistant Staphylococcus aureus ATCC 33591 by serial dilution method; assay type: functional
[3] = Binding affinity to trypsin at 25 degC by isothermal calorimetry
Staphylococcus aureus [4] = test: Antimicrobial activity against Staphylococcus aureus ATCC 25923 by serial dilution method; assay type: functional
[5] = Half life in CD1 mouse stomach whole organ extracts assessed as half life at 1 mg/ml at 37 degC at pH 7.4 by HPLC; assay type: ADME, tissue-based
[6] = Half life in CD1 mouse duodenum whole organ extracts assessed as half life at 1 mg/ml at 37 degC by HPLC; assay type: ADME, tissue-based
[7] = Half life in CD1 mouse liver whole organ extracts assessed as half life at 1 mg/ml at 37 degC by HPLC; assay type: ADME, tissue-based

Row | SMILES | half-life at 1 mg/ml [1] | MIC (Staphylococcus aureus [2]) | pKd [3] | MIC (Staphylococcus aureus [4]) | half-life at 1 mg/ml [5] | half-life at 1 mg/ml [6] | half-life at 1 mg/ml [7] | t1/2 [1]
1 | N=C(N)NCCC[C@H](NC(=O)[C@H](Cc1ccc(-c2ccccc2)cc1)NC(=O)[C@@H](N)CCCN)C(=O)NCc1ccccc1 (H-[Orn]-[Bip]-Arg-NHBn) | 5.1 h | 25 µg/mL (≈ 41.6 µM) | 4.43 | 15 µg/mL (≈ 25 µM) | – | – | – | –
2 | N=C(N)Nc1ccc(C[C@H](N)C(=O)N[C@@H](Cc2ccc(-c3ccccc3)cc2)C(=O)N[C@@H](CCCCN)C(=O)NCc2ccccc2)cc1 (H-[Phe(4-guanidino)]-[Bip]-Lys-NHBn) | 2.2 h | 10 µg/mL (≈ 15.1 µM) | – | 5 µg/mL (≈ 7.54 µM) | – | – | – | –
3 | N=C(N)Nc1ccc(C[C@H](NC(=O)[C@H](Cc2ccc(-c3ccccc3)cc2)NC(=O)[C@@H](N)CCCCN)C(=O)NCc2ccccc2)cc1 (H-Lys-[Bip]-[Phe(4-guanidino)]-NHBn) | 5 h | 5 µg/mL (≈ 7.54 µM) | – | 5 µg/mL (≈ 7.54 µM) | – | – | – | –
4 | N=C(N)NCCC[C@H](NC(=O)[C@@H](N)CCCNC(=N)N)C(=O)N[C@@H](Cc1ccc(-c2ccccc2)cc1)C(=O)NCc1ccccc1 (H-Arg-Arg-[Bip]-NHBn) | < 0.5 h | 5 µg/mL (≈ 7.78 µM) | – | 5 µg/mL (≈ 7.78 µM) | – | – | – | –
5 | N=C(N)NCCC[C@H](N)C(=O)N[C@@H](Cc1ccc(-c2ccccc2)cc1)C(=O)N[C@@H](CCCCN)C(=O)NCc1ccccc1 (H-Arg-[Bip]-Lys-NHBn) | 2.8 h | 10 µg/mL (≈ 16.3 µM) | 4.70 | 10 µg/mL (≈ 16.3 µM) | – | – | – | –
6 | N=C(N)NCCC[C@H](N)C(=O)N[C@@H](Cc1ccc(-c2ccccc2)cc1)C(=O)N[C@@H](Cc1ccc(NC(=N)N)cc1)C(=O)NCc1ccccc1 | 4.1 h | 5 µg/mL (≈ 7.24 µM) | 5.28 | 5 µg/mL (≈ 7.24 µM) | – | – | – | –
7 | N=C(N)NCCC[C@H](NC(=O)[C@H](Cc1ccc(-c2ccccc2)cc1)NC(=O)[C@@H](N)CCCNC(=N)N)C(=O)NCc1ccccc1 (H-Arg-[Bip]-Arg-NHBn) | 1 h | 10 µg/mL (≈ 15.6 µM) | 4.95 | 10 µg/mL (≈ 15.6 µM) | 0.167 h | 0.102 h | 1.76 h | –
8 | NCCCC[C@H](NC(=O)[C@H](Cc1ccc(-c2ccccc2)cc1)NC(=O)[C@@H](N)CCCCN)C(=O)NCc1ccccc1 (H-Lys-[Bip]-Lys-NHBn) | 4.5 h | 15 µg/mL (≈ 25.6 µM) | 4.68 | 25 µg/mL (≈ 42.6 µM) | – | – | – | –
9 | N=C(N)NCCC[C@H](N)C(=O)N[C@@H](Cc1ccc(-c2ccccc2)cc1)C(=O)N[C@@H](CNC(=N)N)C(=O)NCc1ccccc1 (H-Arg-[Bip]-[Agp]-NHBn) | – | 5 µg/mL (≈ 8.13 µM) | – | 5 µg/mL (≈ 8.13 µM) | 11.7 h | 5.39 h | 3.19 h | Stable
10 | N=C(N)NCCC[C@H](N)C(=O)N[C@@H](Cc1ccc(N)cc1)C(=O)N[C@@H](Cc1ccc(-c2ccccc2)cc1)C(=O)NCc1ccccc1 (H-Arg-[Phe(4-NH2)]-[Bip]-NHBn) | – | 10 µg/mL (≈ 15.4 µM) | 5.59 | 15 µg/mL (≈ 23.1 µM) | – | – | – | Stable
11 | N=C(N)NCCC[C@H](N)C(=O)N[C@@H](Cc1ccc(N)cc1)C(=O)N[C@@H](Cc1c[nH]c2ccccc12)C(=O)NCc1ccccc1 (H-Arg-[Phe(4-NH2)]-Trp-NHBn) | – | > 150 µg/mL | 4.83 | 75 µg/mL (≈ 123 µM) | – | – | – | Stable
12 | N=C(N)NCCC[C@H](NC(=O)[C@H](Cc1ccc(-c2ccccc2)cc1)NC(=O)[C@@H](N)CNC(=N)N)C(=O)NCc1ccccc1 (H-[Agp]-[Bip]-Arg-NHBn) | 1.4 h | 10 µg/mL (≈ 16.3 µM) | – | 10 µg/mL (≈ 16.3 µM) | – | – | – | –
13 | N=C(N)NCCC[C@H](N)C(=O)N[C@@H](Cc1ccc(NC(=N)N)cc1)C(=O)N[C@@H](Cc1ccc(-c2ccccc2)cc1)C(=O)NCc1ccccc1 (H-Arg-[Phe(4-guanidino)]-[Bip]-NHBn) | 3.5 h | 5 µg/mL (≈ 7.24 µM) | – | 2.5 µg/mL (≈ 3.62 µM) | – | – | – | –
14 | N=C(N)NCCC[C@H](NC(=O)[C@H](Cc1ccc(-c2ccccc2)cc1)NC(=O)[C@@H](N)CCCCN)C(=O)NCc1ccccc1 (H-Lys-[Bip]-Arg-NHBn) | 1.8 h | 10 µg/mL (≈ 16.3 µM) | 4.94 | 10 µg/mL (≈ 16.3 µM) | – | – | – | –
15 | N=C(N)NCCC[C@H](N)C(=O)N[C@@H](Cc1ccc(-c2ccccc2)cc1)C(=O)N[C@@H](CCCN)C(=O)NCc1ccccc1 (H-Arg-[Bip]-[Orn]-NHBn) | – | 10 µg/mL (≈ 16.6 µM) | 4.24 | 5 µg/mL (≈ 8.32 µM) | – | – | – | Stable
16 | N=C(N)Nc1ccc(C[C@H](NC(=O)[C@H](Cc2ccc(-c3ccccc3)cc2)NC(=O)[C@@H](N)Cc2ccc(NC(=N)N)cc2)C(=O)NCc2ccccc2)cc1 (H-[Phe(4-guanidino)]-[Bip]-[Phe(4-guanidino)]-NHBn) | 2.2 h | 5 µg/mL (≈ 6.77 µM) | – | < 2.5 µg/mL | – | – | – | –
17 | N=C(N)NC[C@H](NC(=O)[C@H](Cc1ccc(-c2ccccc2)cc1)NC(=O)[C@@H](N)CNC(=N)N)C(=O)NCc1ccccc1 (H-[Agp]-[Bip]-[Agp]-NHBn) | – | 15 µg/mL (≈ 25.6 µM) | – | 10 µg/mL (≈ 17 µM) | – | – | – | Stable
18 | N=C(N)NCCCC[C@H](N)C(=O)N[C@@H](Cc1ccc(-c2ccccc2)cc1)C(=O)N[C@@H](CCCNC(=N)N)C(=O)NCc1ccccc1 (H-[hArg]-[Bip]-Arg-NHBn) | 1.9 h | 10 µg/mL (≈ 15.2 µM) | – | < 2.5 µg/mL | – | – | – | –
19 | N=C(N)NCCC[C@H](NC(=O)[C@H](Cc1ccc(-c2ccccc2)cc1)NC(=O)[C@@H](N)Cc1ccc(NC(=N)N)cc1)C(=O)NCc1ccccc1 (H-[Phe(4-guanidino)]-[Bip]-Arg-NHBn) | 0.5 h | 5 µg/mL (≈ 7.24 µM) | – | 5 µg/mL (≈ 7.24 µM) | – | – | – | –
20 | N=C(N)NCCCC[C@H](NC(=O)[C@H](Cc1ccc(-c2ccccc2)cc1)NC(=O)[C@@H](N)CCCNC(=N)N)C(=O)NCc1ccccc1 (H-Arg-[Bip]-[hArg]-NHBn) | – | 10 µg/mL (≈ 15.2 µM) | 4.32 | 5 µg/mL (≈ 7.61 µM) | 6.69 h | 1.37 h | 1.07 h | Stable
21 | N=C(N)NCCC[C@H](NC(=O)[C@@H](N)CCCNC(=N)N)C(=O)N[C@@H](Cc1c[nH]c2ccccc12)C(=O)NCc1ccccc1 (H-Arg-Arg-Trp-NHBn) | < 0.5 h | 75 µg/mL (≈ 124 µM) | – | 25 µg/mL (≈ 41.3 µM) | – | – | – | –
22 | N=C(N)NCCC[C@H](N)C(=O)N[C@@H](Cc1ccc(NC(=N)N)cc1)C(=O)N[C@@H](Cc1c[nH]c2ccccc12)C(=O)NCc1ccccc1 (H-Arg-[Phe(4-guanidino)]-Trp-NHBn) | 8 h | 50 µg/mL (≈ 76.5 µM) | – | 15 µg/mL (≈ 22.9 µM) | – | – | – | –
